In article PMC6934184, “Selective DNA-PKcs inhibition extends the therapeutic index of localized radiotherapy and chemotherapy” (The Journal of Clinical Investigation, 2019):

Columns and labels:
normal lung tissue = test: γH2AX-positive cells in normal lung after thoracic irradiation; type: in vivo, mouse; conditions: 24 hours after 10 Gy; NU5455 30 mg/kg oral
Experimental: combined with 10 Gy thorax irradiation ( n = 6 - 7/group). For whole-thorax irradiation, anaesthetized mice were placed in the supine position in a customized rig. The whole thorax was exposed to X-ray radiation generated by the Gulmay Medical RS320 irradiation system (2.034 Gy/minute). The rest of the body was protected by lead shields. Three mice fr om each treatment group were humanely killed 24 h ours after irradiation, and their tumors processed to permit immunohistochemical analysis .
Tumor growth in the remaining mice was monitored by bioluminescent imaging on days 0, 4, 8 and 15 post-treatment. Mice were injected with luciferin (150 mg/kg i.p., Santa Cruz Biotechnology) and bioluminescence images were acquired using the IVIS Spectrum (PerkinElmer) at 5 minute intervals until maximum light was collected. […] Data were analyzed using LivingImage software (PerkinElmer). […]
Tissues were fixed in 4% paraformaldehyde (PFA) and paraffin -embedded. […] One tissue section from each of 3 mice per group was examined, and the whole section (excluding necrotic areas) analyzed using ImageScope analysis software (Aperio Technologies). γH2AX and 53BP1 foci were manually counted in 200 nuclei from each tumor sample. The percentage of γH2AX and 53BP1 positive nuclei in lung epithelial cells was quantified manually in normal lung samples across 5 randomly-chosen fields of view per […]

[1] = test system: Calu-6 subcutaneous xenografts; test: subcutaneous Calu-6 xenograft with fractionated radiation (4 × 5 Gy); type: in vivo, mouse; conditions: 30 mg/kg oral 30 min before and 5 h after each of 4 × 5 Gy; CD-1 nude mice
Experimental: To examine the effect of NU5455 treatment on efficacy versus a late radiation toxicity, a total dose of 20 Gy of thoracic radiation was administered either to CD-1 nude mice bearing subcutaneous Calu-6 tumors or to non–tumor-bearing C57BL/6 mice, as four 5-Gy fractions given on days 1, 4, 7, and 10. This fractionated regimen was adapted from an existing method ([30]), resulting in focal areas of lung fibrosis at 24 weeks following treatment, but at a level that would enable any exacerbation of fibrosis to be readily detected.
Figure 5 NU5455 augments the effect of fractionated radiotherapy in Calu-6 tumors without enhancing late radiation damage to the lung. (A) Mean tumor volume of mice bearing Calu-6 subcutaneous xenografts treated with localized radiation (4 × 5 Gy on days 1, 4, 7, and 10) with either NU5455 (30 mg/kg orally) or vehicle 30 minutes before and 5 hours after each dose of IR (3–5 mice per group). The time taken to reach 2 times the tumor volume at the start of treatment (RTV2) was also assessed. […] Samples were scored using the modified Ashcroft system on a scale of 0 to 8 (5–9 mice per group). […] Statistical significance was assessed using a log-rank test (A) and 1-way ANOVA (B). *P < 0.05, **P < 0.01, ****P < 0.0001.

## CN(C(=O)CN1CCOCC1)c1ccc2sc3c(-c4cccc5c(=O)cc(N6CC7CCC(C6)O7)oc45)cccc3c2c1 [NU5455]
Normal lung tissue
  number of γH2AX-positive cells in normal lung: unaffected by NU5455 administration
[1]
  time taken for tumors to double in volume (RTV2): increase the time taken
